From PMC7932537, “Quantitative profiling of protease specificity” (PLoS Computational Biology, 2021)

How the values were obtained:
MMP-9 [1] = test: Substrate phage display with NGS: relative probability (RP) of P3-P1' tetramer clusters; type: biochemical, human; conditions: MMP9; RP of the substrate's P3-P1' tetramer, substrate phage display with NGS;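 also: ratio of tetramer probability after protease selection to that in naive phage library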
MMP-2 = target: T1, MMP-2 (Homo sapiens, UniProt P08253); test: K(obs) of individual phage substrates (set of 1369); type: biochemical; conditions: MMP2; individual phage substrate from the set of 1369 peptides; hyphen in the sequence marks the cleavage position
T1 sequence (P08253 110-660): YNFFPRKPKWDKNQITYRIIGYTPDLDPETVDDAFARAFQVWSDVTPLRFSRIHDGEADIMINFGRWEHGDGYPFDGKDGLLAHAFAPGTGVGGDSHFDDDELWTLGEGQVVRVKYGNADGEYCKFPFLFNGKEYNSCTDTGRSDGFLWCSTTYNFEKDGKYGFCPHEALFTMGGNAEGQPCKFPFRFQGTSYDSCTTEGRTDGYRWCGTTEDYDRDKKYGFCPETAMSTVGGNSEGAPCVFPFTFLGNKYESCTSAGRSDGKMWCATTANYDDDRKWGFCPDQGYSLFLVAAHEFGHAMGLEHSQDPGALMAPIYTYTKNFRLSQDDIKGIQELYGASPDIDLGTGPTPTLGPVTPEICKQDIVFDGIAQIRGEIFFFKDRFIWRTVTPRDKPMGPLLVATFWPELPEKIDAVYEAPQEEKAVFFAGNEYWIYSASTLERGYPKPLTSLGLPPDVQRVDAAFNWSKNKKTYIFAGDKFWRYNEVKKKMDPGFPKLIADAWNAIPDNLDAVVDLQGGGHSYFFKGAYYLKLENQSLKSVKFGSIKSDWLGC

MMP-9 [2] = target: MMP-9 (Homo sapiens, UniProt P14780); test: as above; type: biochemical; conditions: MMP9; individual phage substrate of the set of 1369 peptides; dash in sequence marks cleavage position
Chain of MMP-9 (Homo sapiens, UniProt P14780) (P14780 94-707): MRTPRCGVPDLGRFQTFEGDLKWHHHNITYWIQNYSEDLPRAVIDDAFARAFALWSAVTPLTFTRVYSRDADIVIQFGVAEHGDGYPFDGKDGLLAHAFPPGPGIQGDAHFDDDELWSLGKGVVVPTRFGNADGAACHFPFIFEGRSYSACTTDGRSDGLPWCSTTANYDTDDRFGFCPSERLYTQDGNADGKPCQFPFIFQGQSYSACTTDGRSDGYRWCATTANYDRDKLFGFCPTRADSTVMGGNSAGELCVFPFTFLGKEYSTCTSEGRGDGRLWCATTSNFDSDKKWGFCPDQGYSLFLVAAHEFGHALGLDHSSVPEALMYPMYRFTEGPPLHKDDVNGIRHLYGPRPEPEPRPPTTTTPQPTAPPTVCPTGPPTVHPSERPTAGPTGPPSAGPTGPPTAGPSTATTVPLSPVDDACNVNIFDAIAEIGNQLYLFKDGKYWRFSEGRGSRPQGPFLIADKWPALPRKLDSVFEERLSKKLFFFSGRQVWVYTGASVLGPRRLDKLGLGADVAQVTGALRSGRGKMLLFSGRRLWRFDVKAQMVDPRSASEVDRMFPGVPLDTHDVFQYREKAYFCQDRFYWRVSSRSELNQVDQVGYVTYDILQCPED

Kobs (MMP-2) [M⁻¹ s⁻¹]	Kobs (MMP-9 [2]) [M⁻¹ s⁻¹]	Substance	relative probability (RP) (MMP-9 [1])
12792.1	12792.1	SGPSW-IMRTA	43.303
8941.32	6131.32	QMPLQ-ITASG	44.6329
12792.1	12792.1	GSPLP-FITAS	46.6229
12792.1	12792.1	GEPSA-YRTAS	46.6524
5269.78	12792.1	PTWRG-LTASG	37.3667
12792.1	12792.1	AHPSA-LTASG	47.6113
12792.1	0	GHPSP-FTASG	37.3217
0	3438.54	RFPLK-VTASG	22.8859
12792.1	0	ATLAA-LTASG	6.32
12792.1	12792.1	KSPRP-YTASG	47.6856
12792.1	0	GGSGN-LTVKT	1.504
12792.1	12792.1	GYPRG-LGTAS	47.3825
12792.1	12792.1	RAPLP-VTASG	40.8342
12792.1	1610.61	SSVSN-LTASG	31.0505
10866.7	12792.1	GMPLG-LRTAS	48.9856
10866.7	874.197	GVVGA-LRTAS	19.0529
6396.07	3964.21	EWPSR-MTASG	33.7336
4763.33	6396.07	GFTRW-LTASG	25.6075
10866.7	84.609	KSISN-WTASG	0.06259
12792.1	10866.7	LPPLG-FTASG	44.5202
4205.91	4922.1	RMWRA-FTASG	17.7749
12792.1	7015.91	SGPSH-WIGTA	19.8718
2409.72	4922.1	SGPKW-MRHTA	51.5185
12792.1	12792.1	SVPSA-ITASG	45.9388

Kobs (MMP-2) [M⁻¹ s⁻¹]	Kobs (MMP-9 [2]) [M⁻¹ s⁻¹]	Substance	relative probability (RP) (MMP-9 [1])
10866.7	113.394	ATLAA-WTASG	1.553
12792.1	12792.1	SGASN-LRGTA	27.6194
3741.87	4082.43	HRPEW-YTASG	25.7162
231.616	2409.72	WTPRG-NTASG	15.8425
6131.32	0	TDIGE-ITASG	0.4519
12792.1	1030.73	ILLSP-LTASG	4.611
12792.1	10866.7	QVPRR-LTASG	2.666
12792.1	0	PKLAA-ITASG	1.188
4082.43	113.394	MPMGR-LTASG	2.466
1513.13	4613.14	SGPYS-WQVTA	33.8051
12792.1	12792.1	SSPLA-LTASG	48.3776
1418.96	6396.07	SGPVA-MTKTA	44.6624
2038.8	6396.07	HTVYW-MTASG	40.8648
12792.1	201.585	PQMGS-LTASG	3.398
12792.1	8941.32	MWVLS-LTASG	27.5596
12792.1	9740.44	YIPTA-FTASG	24.5969
12792.1	12792.1	SGPSR-LTFTA	39.8157
12792.1	912.511	KRLAF-LTASG	0.6348
12792.1	12792.1	SGPWA-ITGTA	50.8721
1030.73	2916.17	SGVRD-LYFTA	30.416
2761.81	8941.32	SGALN-FYSTA	19.1713
323.705	1112.44	TSARK-LTASG	0
12792.1	2837.92	SGPAS-VRNTA	25.8589
12792.1	7815.03	GRPRS-LLTAS	44.7764

Kobs (MMP-2) [M⁻¹ s⁻¹]	Kobs (MMP-9 [2]) [M⁻¹ s⁻¹]	Substance	relative probability (RP) (MMP-9 [1])
4613.14	10866.7	KDPKF-LTASG	42.7484
12792.1	12792.1	YHPIS-LTASG	42.7806
6131.32	4613.14	SGPQW-MINTA	45.9264
12792.1	12792.1	IGVRA-LTASG	43.1929
1327.88	619.843	QRVRG-VTASG	13.8249
10866.7	12792.1	TLIRY-LTASG	33.2843
12792.1	12792.1	NPPSH-LTASG	43.8368
3964.21	6131.32	SGPRF-LIGTA	42.4535
2409.72	10866.7	TNVFW-YTASG	29.291
6688.74	9740.44	GDPRW-LSTAS	47.776
690.17	7815.03	FEPQR-MTASG	31.7168
12792.1	12792.1	SSPLN-YTASG	47.778
12792.1	10866.7	LIPAW-LTASG	46.2228
12792.1	12792.1	KVLSA-VTASG	0.4242
12792.1	8941.32	WNPSY-LTASG	40.8983
12792.1	6688.74	ESIRG-LTASG	41.2198
12792.1	12792.1	GNPLG-IRTAS	48.5606
12792.1	12792.1	VGPAF-LTASG	38.454
12792.1	12792.1	GMVLG-LHTAS	34.6877
12792.1	12792.1	YGPRA-ITASG	47.8426
4082.43	0	QRVAA-VTASG	0.4709
2996.69	12792.1	SLPLL-LTASG	32.5638
